US8404729B2, “Heterocyclic tetracyclic tetrahydrofuran derivatives” (Janssen Pharmaceutica, NV, priority 2005, dated 2013)

Assays:
[1] = molecular target: T1, 5-HT2C receptors (Sus scrofa, UniProt K7GSR7); experiment: In vitro binding affinity for 5-HT2C receptor (3H-mesulergine radioligand binding); conditions: choroid plexus of the pig, read-out: 5-HT2C (pIC50) (converted)
T1 construct: the tissue used is the choroid plexus of the pig; from tissue; host or cells: pig choroid plexus
T1 sequence (K7GSR7 1-457): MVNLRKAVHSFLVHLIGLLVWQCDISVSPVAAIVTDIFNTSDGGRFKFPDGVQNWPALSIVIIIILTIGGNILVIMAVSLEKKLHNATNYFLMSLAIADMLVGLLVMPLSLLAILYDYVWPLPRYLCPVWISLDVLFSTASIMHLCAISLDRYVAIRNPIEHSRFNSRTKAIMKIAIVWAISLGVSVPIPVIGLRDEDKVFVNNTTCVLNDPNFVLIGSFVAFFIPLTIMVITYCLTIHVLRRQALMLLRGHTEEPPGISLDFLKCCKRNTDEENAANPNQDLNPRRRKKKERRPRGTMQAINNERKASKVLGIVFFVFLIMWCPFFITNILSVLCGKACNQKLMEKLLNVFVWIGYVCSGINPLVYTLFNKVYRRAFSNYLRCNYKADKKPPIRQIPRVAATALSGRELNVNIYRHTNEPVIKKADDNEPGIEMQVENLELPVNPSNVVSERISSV
Description: (§1) The interaction of the compounds of Formula (I) with 5-HT2A and 5-HT2C receptors was assessed in in vitro radioligand binding experiments. In general, a low concentration of a radioligand with a high binding affinity for the receptor is incubated with a sample of a tissue preparation enriched in a particular receptor (1 to 5 mg tissue) in a buffered medium (0.2 to 5 ml). During the incubation, the radioligands bind to the receptor. When equilibrium of binding is reached, the receptor bound radioactivity is separated from the non-bound radioactivity, and the receptor bound activity is counted. The interaction of the test compounds with the receptors is assessed in competition binding experiments. Various concentrations of the test compound are added to the incubation mixture containing the tissue preparation and the radioligand. Binding of the radioligand will be inhibited by the test compound in proportion to its binding affinity and its concentration. The radioligand used for 5-HT2A binding affinity is ^3H-ketanserin and the tissue used is the frontal cortex of the rat. The radioligand used for 5-HT2c binding affinity is ^3H-mesulergine and the tissue used is the choroid plexus of the pig.

[2] = molecular target: T2, human Dopamine D2L receptor (Homo sapiens, UniProt P14416); experiment: In vitro binding affinity for human D2L receptor ([3H]Spiperone); conditions: membranes of human D2L receptor-transfected CHO cells, read-out: D2 (pIC50) (converted)
T2 construct: expressed in transfected cells; host or cells: CHO cells
Description: Frozen membranes of human Dopamine D2L receptor-transfected CHO cells were thawed, briefly homogenised using an Ultra-Turrax T25 homogeniser and diluted in Tris-HCl assay buffer containing NaCl, CaCl2, MgCl2, KCl (50, 120, 2, 1, and 5 mM respectively, adjusted to pH 7.7 with HCl) to an appropriate protein concentration optimised for specific and non-specific binding. Radioligand [^3H]Spiperone (NEN, specific activity ˜70 Ci/mmol) was diluted in assay buffer at a concentration of 2 nmol/L. Prepared radioligand (50 μl), along with 50 μl of either the 10% DMSO control, Butaclamol (10^−6 mol/l final concentration), or compound of interest, was then incubated (30 min, 37° C.) with 400 μl of the prepared membrane solution. Membrane-bound activity was filtered through a Packard Filtermate harvester onto GF/B Unifilterplates and washed with ice-cold Tris-HCl buffer (50 mM; pH 7.7; 6×0.5 ml). Filters were allowed to dry before adding scintillation fluid and counting in a Topcount scintillation counter. Percentage specific bound and competition binding curves were calculated using S-Plus software (Insightful).

[3] = molecular target: T3, NET (Rattus norvegicus, UniProt Q63380); experiment: In vitro determination of NET reuptake inhibition ([3H]Nixosetine binding); conditions: rat brain cortex membranes, read-out: NET-inhibition (pIC50) (converted)
T3 construct: Cortex from rat brain was collected and homogenised; from tissue; host or cells: rat brain cortex
Description: Cortex from rat brain was collected and homogenised using an Ultra-Turrax T25 and a Dual homogeniser in ice-cold homogenising buffer containing Tris, NaCl and KCl (50 mM, 120 mM and 5 mM, respectively, pH 7.4) prior to dilution to an appropriate protein concentration optimised for specific and non-specific binding. […] Membrane-bound activity was detected by filtration through a Packard Filtermate harvester onto GF/B Unifilterplates, washed with ice-cold Tris-HCl buffer, containing NaCl and KCl (50 mM, 120 mM and 4 mM; pH 7.4; 6×0.5 ml). Filters were allowed to dry for 24 h before adding scintillation fluid. Scintillation fluid was allowed to saturate filters for 24 h before counting in a Topcount scintillation counter. Percentage specific bound and competition binding curves were calculated using S-Plus software (Insightful).

[4] = molecular target: T4, 5-HT2A receptors (Rattus norvegicus, UniProt P14842); experiment: In vitro binding affinity for 5-HT2A receptor (3H-ketanserin radioligand binding); conditions: frontal cortex of the rat, read-out: 5-HT2A (pIC50) (converted)
T4 construct: the tissue used is the frontal cortex of the rat; from tissue; host or cells: rat frontal cortex
Description: as §1, with “In general, a low concentration of a radioligand with a high binding affinity for the receptor is incubated with a sample of a tissue preparation enriched in a particular receptor (1 to 5 mg tissue) in a buffered medium (0.2 to 5 ml).” left out

T4 sequence (P14842 whole entry): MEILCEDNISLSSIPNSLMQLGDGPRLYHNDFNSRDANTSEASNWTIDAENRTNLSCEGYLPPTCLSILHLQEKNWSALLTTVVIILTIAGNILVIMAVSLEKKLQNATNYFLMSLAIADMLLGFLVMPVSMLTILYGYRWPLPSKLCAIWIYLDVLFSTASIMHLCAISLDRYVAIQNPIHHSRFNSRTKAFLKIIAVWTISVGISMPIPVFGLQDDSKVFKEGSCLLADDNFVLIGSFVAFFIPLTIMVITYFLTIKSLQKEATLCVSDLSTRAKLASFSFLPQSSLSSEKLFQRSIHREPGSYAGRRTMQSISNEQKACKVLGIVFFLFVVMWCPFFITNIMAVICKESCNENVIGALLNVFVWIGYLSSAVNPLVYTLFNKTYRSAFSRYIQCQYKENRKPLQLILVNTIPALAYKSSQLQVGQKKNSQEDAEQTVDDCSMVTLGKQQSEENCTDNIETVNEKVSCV
T3 sequence (Q63380 1-617): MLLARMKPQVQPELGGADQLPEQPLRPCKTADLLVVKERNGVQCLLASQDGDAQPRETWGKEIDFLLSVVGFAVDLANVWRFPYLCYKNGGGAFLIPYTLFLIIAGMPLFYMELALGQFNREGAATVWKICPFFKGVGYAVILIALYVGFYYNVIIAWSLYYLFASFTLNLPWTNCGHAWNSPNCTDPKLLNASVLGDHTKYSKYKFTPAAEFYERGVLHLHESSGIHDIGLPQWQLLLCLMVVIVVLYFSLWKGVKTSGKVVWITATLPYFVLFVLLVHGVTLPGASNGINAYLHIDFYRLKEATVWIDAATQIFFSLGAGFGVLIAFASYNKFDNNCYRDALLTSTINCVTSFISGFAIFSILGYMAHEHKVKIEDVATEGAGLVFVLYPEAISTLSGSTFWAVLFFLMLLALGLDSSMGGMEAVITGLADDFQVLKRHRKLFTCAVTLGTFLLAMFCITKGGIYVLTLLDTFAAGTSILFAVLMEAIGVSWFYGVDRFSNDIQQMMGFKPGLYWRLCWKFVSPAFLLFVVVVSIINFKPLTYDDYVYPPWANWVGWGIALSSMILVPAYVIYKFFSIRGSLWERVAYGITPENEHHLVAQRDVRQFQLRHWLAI
T2 sequence (P14416 whole entry): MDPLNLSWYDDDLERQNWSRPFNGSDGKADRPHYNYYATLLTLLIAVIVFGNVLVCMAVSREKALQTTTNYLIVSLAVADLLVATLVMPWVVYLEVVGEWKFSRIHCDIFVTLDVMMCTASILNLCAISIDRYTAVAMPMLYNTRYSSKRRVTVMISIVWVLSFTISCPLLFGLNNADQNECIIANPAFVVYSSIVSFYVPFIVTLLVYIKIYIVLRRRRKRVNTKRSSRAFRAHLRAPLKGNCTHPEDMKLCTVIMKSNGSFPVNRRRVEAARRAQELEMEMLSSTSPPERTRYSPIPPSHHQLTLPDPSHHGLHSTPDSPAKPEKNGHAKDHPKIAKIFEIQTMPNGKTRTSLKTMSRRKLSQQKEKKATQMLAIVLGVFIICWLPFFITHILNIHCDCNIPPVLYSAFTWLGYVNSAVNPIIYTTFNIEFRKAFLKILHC

SMILES | IC50 [1] [nM] | IC50 [2] [nM] | IC50 [3] [nM] | IC50 [4] [nM]
CNCC1CC2c3ccccc3N(Cc3ccccc3)c3ncccc3C2O1 (mixture of isomers) [Compound 37] | 100 | 1580 | 1260 | 
CN(C)C[C@H]1C[C@@H]2c3ccccc3Sc3sc(CO)cc3[C@H]2O1 (racemic) [Compound 5] | 20 | 200 | 398 | 
CNC[C@H]1C[C@@H]2c3ccccc3Sc3sccc3[C@H]2O1 (racemic) [Compound 20] | 50.1 | 1260 | 63.1 | 79.4
CN(CCO)CC1CC2c3ccccc3Sc3sccc3C2O1 (racemic) [Compound 25] | 10 | 200 | 126 | 10
CNC[C@H]1C[C@@H]2c3ccccc3Sc3sccc3[C@H]2O1 (racemic) [Compound 32] |  | 2000 | 39.8 | 
CN(CCO)C[C@H]1C[C@H]2c3ccccc3Sc3sccc3[C@@H]2O1 (relative stereo) [Compound 10] | 20 | 200 | 200 | 12.6
OCCN1CCN(C[C@H]2C[C@H]3c4ccccc4Sc4sccc4[C@@H]3O2)CC1 (relative stereo) [Compound 12] | 251 | 31.6 | > 10000 | 12.6
c1ccc2c(c1)Sc1sccc1[C@@H]1O[C@@H](CN3CCC4(CC3)OCCO4)C[C@@H]21 (relative stereo) [Compound 13] | 100 | 20 | > 10000 | 5.01
OCCN1CCN(C[C@H]2C[C@@H]3c4ccccc4Sc4sccc4[C@H]3O2)CC1 (relative stereo) [Compound 15] | 251 | 251 | 2510 | 200
OC1CCN(C[C@H]2C[C@@H]3c4ccccc4Sc4sccc4[C@H]3O2)C1 (relative stereo) [Compound 16] | 15.8 | 158 | 3160 | 20
c1ccc2c(c1)Sc1sccc1[C@H]1O[C@@H](CN3CCC4(CC3)OCCO4)C[C@H]21 (relative stereo) [Compound 17] | 100 | 158 | > 10000 | 39.8
CN(CCO)C[C@H]1C[C@@H]2c3ccccc3Sc3sccc3[C@H]2O1 (relative stereo) [Compound 18] | 39.8 |  | 31.6 | 39.8
CNC[C@H]1C[C@H]2c3ccccc3Sc3sccc3[C@@H]2O1 (relative stereo) [Compound 21] | 3.98 | 501 | 126 | < 10
OC1CCN(C[C@H]2C[C@H]3c4ccccc4Sc4sccc4[C@@H]3O2)C1 (relative stereo) [Compound 23] | 3.98 | 251 | 3160 | < 10
CN(C)C1CCN(C[C@H]2C[C@@H]3c4ccccc4Sc4sccc4C3O2)C1 (relative stereo) [Compound 27] | 50.1 | 398 | > 10000 | 
CN(C)C1CCN(C[C@H]2C[C@H]3c4ccccc4Sc4sccc4[C@@H]3O2)C1 (relative stereo) [Compound 29] | 251 | 794 | > 10000 | 
CNCC1CC2c3ccccc3Sc3sccc3C2O1 (single isomer, unassigned) [Compound 31] | 27.5 | 1260 | 1000 | 
CN(C)C[C@@H]1C[C@@H]2c3ccccc3Sc3sccc3[C@H]2O1 [Compound 2] | 7.94 | 200 | 63.1 | < 10
COC(=O)c1cc2c(s1)Sc1ccccc1[C@H]1C[C@H](CN(C)C)O[C@H]21 [Compound 4] | 158 | 3980 | 631 | 
CNCC1CC2c3ccccc3Cc3sccc3C2O1 (stereo not drawn) [Compound 6] | 39.8 | 2510 | 2000 | 39.8
CNCC1CC2c3ccccc3Cc3sccc3C2O1 (stereo not drawn) [Compound 7] | 20 | 3160 | 2510 | 251
CNCC1CC2c3ccccc3Cc3sccc3C2O1 (stereo not drawn) [Compound 8] | 63.1 | 3160 | 1000 | > 10000
CN(C)CC1CC2c3ccccc3Sc3sccc3C2O1 (stereo not drawn) [Compound 9] | 25.1 | 398 | 316 | 15.8
OCCC1CCN(CC2CC3c4ccccc4Sc4sccc4C3O2)CC1 (stereo not drawn) [Compound 11] | 39.8 | 6.31 | 7940 | 3.16
CN(C)CC1CC2c3ccccc3Cc3sccc3C2O1 (stereo not drawn) [Compound 33] | 50.1 | 794 | 1000 | 100
CCOC(=O)c1cc2c(s1)Sc1ccccc1C1CC(CN(C)C)OC21 (stereo not drawn) [Compound 34] | 316 | 3980 | 2510 | 158
CN(C)CC1CC2c3ccccc3Cc3ccsc3C2O1 (stereo not drawn) [Compound 35] | 15.8 | 794 | 501 | 6.31
CNCC1CC2c3ccccc3N(Cc3ccccc3)c3ncccc3C2O1 (stereo not drawn) [Compound 36] | 631 | 6310 | 5010 | 
